Test results as given in paper PMC10803553 (Frontiers in Oncology, 2024).
“Also recorded” adds a separate entry of the source.

How the values were obtained:
EML4-ALK F1174S NSCLC = settings: one NSCLC patient, after resistance to crizotinib; alectinib 6 months, ceritinib 3 months, brigatinib 1 month
EML4-ALK (F1174S) V3a = biological target: T1, EML4-ALK (F1174S) V3a (Homo sapiens, UniProt Q9HC35+Q9UM73, F1174S); settings: NL20 cells, 0 nM to 1000 nM, pALK-Y1604 readout
T1 sequence (Q9HC35+Q9UM73 with tags, fused parts or gaps Q9UM73:F1174S): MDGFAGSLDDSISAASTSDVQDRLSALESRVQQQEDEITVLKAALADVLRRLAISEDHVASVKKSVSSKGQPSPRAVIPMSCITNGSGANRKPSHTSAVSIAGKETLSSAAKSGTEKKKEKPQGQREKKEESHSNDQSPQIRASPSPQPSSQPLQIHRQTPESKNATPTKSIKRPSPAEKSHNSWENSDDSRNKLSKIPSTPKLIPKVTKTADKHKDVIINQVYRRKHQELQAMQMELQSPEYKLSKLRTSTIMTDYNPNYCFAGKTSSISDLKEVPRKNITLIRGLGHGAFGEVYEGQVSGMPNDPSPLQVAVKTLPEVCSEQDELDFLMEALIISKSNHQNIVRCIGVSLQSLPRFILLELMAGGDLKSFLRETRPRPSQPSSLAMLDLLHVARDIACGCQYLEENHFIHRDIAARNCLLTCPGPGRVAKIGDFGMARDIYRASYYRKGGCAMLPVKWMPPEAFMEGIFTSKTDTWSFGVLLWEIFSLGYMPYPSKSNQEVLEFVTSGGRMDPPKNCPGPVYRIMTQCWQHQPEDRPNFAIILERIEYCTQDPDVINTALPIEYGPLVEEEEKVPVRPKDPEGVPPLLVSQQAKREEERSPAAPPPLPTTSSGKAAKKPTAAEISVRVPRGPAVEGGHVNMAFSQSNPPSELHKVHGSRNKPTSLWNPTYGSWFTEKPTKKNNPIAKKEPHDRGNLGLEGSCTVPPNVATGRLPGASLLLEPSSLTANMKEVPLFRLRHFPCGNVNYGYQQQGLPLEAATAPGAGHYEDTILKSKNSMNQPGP
Description: (§1) SK-N-AS cells were transfected with Lipofectamine 3000 (Invitrogen, Carlsbad. CA) following the manufacturer’s instruction. […] After 24-36 hours culture, cells were treated with serial dilutions of the indicated inhibitors for 2 hours.
Cells were washed with ice-cold PBS prior to harvest in lysis buffer [25 mM of Tris-Cl, pH7.5, 150 mM of NaCl, 1% (v/v) Triton X-100, 1 mM of DTT, and protease inhibitor cocktail]. Cell lysates were clarified by centrifugation at 14,000 rpm for 15 minutes at 4°C. Samples were boiled in 1x SDS sample buffer and analyzed by immunoblotting. Enhanced chemiluminescence (ECL) and fluorescence blot images were taken with LI-COR Odyssey FC instrument and Image Studio 5.2 software (Lincoln, NE). […] The intensity of different protein bands was quantified with Image Studio Lite 5.2 software (Lincoln, NE). Ratios were shown either directly or normalized. […] GraphPad Prism 6.0 was used to calculate IC50 values by fitting data to a log (inhibitor concentration) vs. normalized response (variable slope) equation.
We therefore tested the sensitivity of these EML4-ALK mutants to ALK inhibitors. […] Dose-dependent ALK activity responses were followed with anti-pALK-Y1604 as readout.
Dose-dependent ALK activity responses were followed employing anti-pALK-Y1604 as readout.

[1] = test system: wildtype and F1174S mutant EML4-ALK V3a and EML4-ALK V3b; test: Dose-dependent pALK-Y1604 response to crizotinib or lorlatinib in NL20 cells, wildtype and F1174S mutant V3a/b (immunoblot, qualitative); type: cell-based, human; settings: 0 nM to 1000 nM, 2 hours
EML4-ALK V1 mRNA = test: RT-PCR for EML4-ALK V1 mRNA after ALK inhibition in DFCI032 cells; type: cell-based, human; settings: 30 nM lorlatinib, 24 hours
Description: Reverse transcription was performed with the SuperScript IV First-Strand Synthesis System (Invitrogen, Carlsbad. CA) following the manufacturer’s protocol. PCR was performed with DreamTaq Hot Start Green PCR Master Mix (ThermoScientific, Waltham, MA). The PCR primers used for ALK were 5’-[…]-3’ and 5’-[…]-3’; and the primers for Actin were 5’-[…]-3’ and 5’-[…]-3’.
as §1

Row | SMILES | clinical response to ALK TKI (EML4-ALK F1174S NSCLC) | sensitivity of EML4-ALK (F1174S) V3a to ALK inhibition relative to EML4-ALK V3a (qualitative) (EML4-ALK (F1174S) V3a) | inhibition of ALK-Y1604 phosphorylation (qualitative) [1] | ALK mRNA levels in response to treatment (EML4-ALK V1 mRNA)
1 | COc1cc(N2CCC(N3CCN(C)CC3)CC2)ccc1Nc1ncc(Cl)c(Nc2ccccc2P(C)(C)=O)n1 [brigatinib] | no detectable response | strongest effect; also recorded: more sensitive | – | –
2 | Cc1cc(Nc2ncc(Cl)c(Nc3ccccc3S(=O)(=O)C(C)C)n2)c(OC(C)C)cc1C1CCNCC1 [ceritinib] | no detectable response | more sensitive | – | –
3 | C[C@H]1Oc2cc(cnc2N)-c2c(nn(C)c2C#N)CN(C)C(=O)c2ccc(F)cc21 [lorlatinib] | – | – | superior inhibition effect | decreased ALK mRNA levels
